Experiments:
[1] = biological target: Epidermal growth factor receptor [T790M,C797S,L858R] (UniProt P00533, C797S/L858R/T790M); assay: Inhibitory Activity for EGFR (L858R/T790M/C797S) Kinase
Protocol: (§1) A 50 ng/μL EGFR (L858R/T790M/C797S, BPS) stock solution was diluted with a kinase buffer (50 mM HEPES, 10 mM MgCl2, 2 mM DTT, 1 mM EGTA, 0.01% Tween 20), and 6 μL of 1.67× working solution at 0.00167 ng/μL (final concentration: 0.001 ng/μL) was added to each well. Different compounds dissolved in DMSO were added to wells using a nanoliter pipettor, resulting in the final concentrations of the compounds of 10 nM to 0.0024 nM (4-fold gradient, 7 concentrations in total), and blank control wells (without enzyme) and negative control wells (with enzyme, plus vehicle DMSO) were set, 2 replicate wells for each concentration. After enzyme was reacted with the compound or vehicle for 30 min, 5×ATP at 25 μM (final concentration: 5 μM, Sigma) prepared with a kinase buffer was mixed with 5× substrate at 0.5 μM (final concentration: 0.1 μM, ULight-poly GT, PerkinElmer) at a ratio of 1:1 (v:v), and the mixture was added to each well at 4 μL/well. After being sealed with a film, the plate was incubated at room temperature for 2 h, and then 5 μL of 4×EDTA at 40 mM (final concentration: 10 mM) was added to each well. After the plate was incubated for 5 min at room temperature, 5 μL of 4× detection reagent at 8 nM (final concentration: 2 nM, Eu-anti-phospho-tyrosine antibody, PerkinElmer) was added to each well. After being incubated at room temperature for 1 h, the plate was read using a PerkinElmer Envision multi-mode microplate reader (excitation: 320 nm, emission: 665 nm), and IC50 was calculated by four-parameter fitting.

[2] = biological target: Epidermal growth factor receptor (EGFR)(L858R)(T790M) (Homo sapiens, UniProt P00533, L858R/T790M); assay: Inhibitory Activity for EGFR (L858R/T790M) Kinase
Protocol: as §1, with “(L858R/T790M, Carna)” for “(L858R/T790M/C797S, BPS)”, “0.004175” for “0.00167”, “0.0025” for “0.001”

[3] = biological target: Epidermal growth factor receptor (Homo sapiens, UniProt P00533); assay: Inhibitory Activity for EGFR (WT) Kinase
Protocol: A 50 ng/μL EGFR (WT, Carna) stock solution was diluted with a kinase buffer (50 mM HEPES, 10 mM MgCl2, 2 mM DTT, 1 mM EGTA, 0.01% Tween 20), and 6 μL of 1.67× working solution at 0.005 ng/μL (final concentration: 0.003 ng/μL) was added to each well. Different compounds dissolved in DMSO were added to the wells using a nanoliter pipettor, resulting in the final concentrations of the compounds of 100 nM to 0.0244 nM (4-fold gradient for 7 concentrations in total), and blank control wells (without enzyme) and negative control wells (with enzyme, plus vehicle DMSO) were set, 2 replicate wells for each concentration. After enzyme was reacted with the compound or vehicle for 30 min, 5×ATP at 25 μM (final concentration: 5 μM, Sigma) prepared with a kinase buffer was mixed with 5× substrate at 0.5 μM (final concentration: 0.1 μM, ULight-poly GT, PerkinElmer) at a ratio of 1:1 (v:v), and the mixture was added to each well at 4 μL/well. After being sealed with a film, the plate was incubated at room temperature for 2 h, and then 5 μL of 4×EDTA at 40 mM (final concentration: 10 mM) was added to each well. After the plate was incubated for 5 min at room temperature, 5 μL of 4× detection reagent at 8 nM (final concentration: 2 nM, Eu-anti-phospho-tyrosine antibody, PerkinElmer) was added to each well.

Chain of Epidermal growth factor receptor [T790M,C797S,L858R] (P00533 25-1210 T790M/C797S/L858R limits assumed): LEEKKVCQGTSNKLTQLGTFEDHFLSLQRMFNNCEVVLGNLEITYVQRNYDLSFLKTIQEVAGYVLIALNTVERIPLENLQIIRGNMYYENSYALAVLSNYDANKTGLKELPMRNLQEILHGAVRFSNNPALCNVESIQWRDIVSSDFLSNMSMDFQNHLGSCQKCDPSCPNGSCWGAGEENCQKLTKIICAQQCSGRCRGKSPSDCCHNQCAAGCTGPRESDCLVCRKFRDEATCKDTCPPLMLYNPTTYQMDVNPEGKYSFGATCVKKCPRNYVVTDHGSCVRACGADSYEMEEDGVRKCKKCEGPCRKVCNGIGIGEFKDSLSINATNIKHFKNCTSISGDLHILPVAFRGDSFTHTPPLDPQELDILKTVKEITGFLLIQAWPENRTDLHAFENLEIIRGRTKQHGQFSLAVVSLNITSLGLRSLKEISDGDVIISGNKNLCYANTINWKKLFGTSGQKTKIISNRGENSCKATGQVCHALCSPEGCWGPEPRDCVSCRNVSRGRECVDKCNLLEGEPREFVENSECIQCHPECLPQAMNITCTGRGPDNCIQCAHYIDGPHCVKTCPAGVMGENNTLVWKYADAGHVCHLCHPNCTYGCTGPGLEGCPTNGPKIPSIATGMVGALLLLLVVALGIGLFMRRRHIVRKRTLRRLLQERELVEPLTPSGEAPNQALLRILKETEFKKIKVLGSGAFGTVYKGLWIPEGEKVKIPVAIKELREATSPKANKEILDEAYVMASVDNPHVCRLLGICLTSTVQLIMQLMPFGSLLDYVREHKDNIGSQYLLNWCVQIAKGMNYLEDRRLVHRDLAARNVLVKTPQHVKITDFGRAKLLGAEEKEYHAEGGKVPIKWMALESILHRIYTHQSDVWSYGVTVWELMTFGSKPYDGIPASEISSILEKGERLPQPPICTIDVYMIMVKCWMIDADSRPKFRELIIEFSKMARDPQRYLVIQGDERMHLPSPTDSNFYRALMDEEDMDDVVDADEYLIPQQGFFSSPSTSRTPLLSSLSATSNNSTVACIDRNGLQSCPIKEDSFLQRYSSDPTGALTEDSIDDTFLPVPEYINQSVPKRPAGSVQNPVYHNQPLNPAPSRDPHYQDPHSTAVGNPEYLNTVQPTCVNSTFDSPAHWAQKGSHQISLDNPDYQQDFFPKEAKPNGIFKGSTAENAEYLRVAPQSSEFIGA
Chain of Epidermal growth factor receptor (P00533 whole entry): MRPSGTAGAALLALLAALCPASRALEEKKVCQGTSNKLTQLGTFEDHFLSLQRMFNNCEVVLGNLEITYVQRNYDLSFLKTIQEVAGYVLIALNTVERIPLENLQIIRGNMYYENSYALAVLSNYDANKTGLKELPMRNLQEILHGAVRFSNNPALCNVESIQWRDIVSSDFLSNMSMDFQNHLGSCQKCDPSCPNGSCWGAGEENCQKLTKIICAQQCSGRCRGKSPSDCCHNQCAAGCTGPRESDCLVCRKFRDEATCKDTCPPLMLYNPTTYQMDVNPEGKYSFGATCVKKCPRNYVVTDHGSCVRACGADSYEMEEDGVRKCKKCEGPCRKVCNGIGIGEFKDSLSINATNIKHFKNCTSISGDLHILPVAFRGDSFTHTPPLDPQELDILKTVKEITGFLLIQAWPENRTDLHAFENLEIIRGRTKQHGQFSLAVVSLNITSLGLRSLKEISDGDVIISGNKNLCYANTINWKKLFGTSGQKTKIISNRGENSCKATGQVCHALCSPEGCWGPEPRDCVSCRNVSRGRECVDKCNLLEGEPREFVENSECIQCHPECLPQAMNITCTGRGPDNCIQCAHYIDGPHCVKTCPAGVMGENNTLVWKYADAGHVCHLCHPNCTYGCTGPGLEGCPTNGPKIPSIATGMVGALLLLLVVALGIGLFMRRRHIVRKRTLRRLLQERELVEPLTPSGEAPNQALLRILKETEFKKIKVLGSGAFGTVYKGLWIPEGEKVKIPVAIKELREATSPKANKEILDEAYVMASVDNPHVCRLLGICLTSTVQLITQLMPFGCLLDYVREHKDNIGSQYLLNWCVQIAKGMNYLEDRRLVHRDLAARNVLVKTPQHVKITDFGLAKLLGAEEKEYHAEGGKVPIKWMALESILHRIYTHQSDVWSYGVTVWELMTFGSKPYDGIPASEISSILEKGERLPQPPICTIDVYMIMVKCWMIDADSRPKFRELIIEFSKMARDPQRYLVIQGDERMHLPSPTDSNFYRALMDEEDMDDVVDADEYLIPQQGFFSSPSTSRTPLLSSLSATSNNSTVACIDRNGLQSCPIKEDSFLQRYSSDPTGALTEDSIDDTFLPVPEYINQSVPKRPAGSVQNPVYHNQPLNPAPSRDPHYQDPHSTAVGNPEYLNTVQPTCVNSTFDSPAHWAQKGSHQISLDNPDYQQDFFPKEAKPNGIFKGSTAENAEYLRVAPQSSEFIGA
Chain of Epidermal growth factor receptor (EGFR)(L858R)(T790M) (P00533 25-1210 T790M/L858R limits assumed): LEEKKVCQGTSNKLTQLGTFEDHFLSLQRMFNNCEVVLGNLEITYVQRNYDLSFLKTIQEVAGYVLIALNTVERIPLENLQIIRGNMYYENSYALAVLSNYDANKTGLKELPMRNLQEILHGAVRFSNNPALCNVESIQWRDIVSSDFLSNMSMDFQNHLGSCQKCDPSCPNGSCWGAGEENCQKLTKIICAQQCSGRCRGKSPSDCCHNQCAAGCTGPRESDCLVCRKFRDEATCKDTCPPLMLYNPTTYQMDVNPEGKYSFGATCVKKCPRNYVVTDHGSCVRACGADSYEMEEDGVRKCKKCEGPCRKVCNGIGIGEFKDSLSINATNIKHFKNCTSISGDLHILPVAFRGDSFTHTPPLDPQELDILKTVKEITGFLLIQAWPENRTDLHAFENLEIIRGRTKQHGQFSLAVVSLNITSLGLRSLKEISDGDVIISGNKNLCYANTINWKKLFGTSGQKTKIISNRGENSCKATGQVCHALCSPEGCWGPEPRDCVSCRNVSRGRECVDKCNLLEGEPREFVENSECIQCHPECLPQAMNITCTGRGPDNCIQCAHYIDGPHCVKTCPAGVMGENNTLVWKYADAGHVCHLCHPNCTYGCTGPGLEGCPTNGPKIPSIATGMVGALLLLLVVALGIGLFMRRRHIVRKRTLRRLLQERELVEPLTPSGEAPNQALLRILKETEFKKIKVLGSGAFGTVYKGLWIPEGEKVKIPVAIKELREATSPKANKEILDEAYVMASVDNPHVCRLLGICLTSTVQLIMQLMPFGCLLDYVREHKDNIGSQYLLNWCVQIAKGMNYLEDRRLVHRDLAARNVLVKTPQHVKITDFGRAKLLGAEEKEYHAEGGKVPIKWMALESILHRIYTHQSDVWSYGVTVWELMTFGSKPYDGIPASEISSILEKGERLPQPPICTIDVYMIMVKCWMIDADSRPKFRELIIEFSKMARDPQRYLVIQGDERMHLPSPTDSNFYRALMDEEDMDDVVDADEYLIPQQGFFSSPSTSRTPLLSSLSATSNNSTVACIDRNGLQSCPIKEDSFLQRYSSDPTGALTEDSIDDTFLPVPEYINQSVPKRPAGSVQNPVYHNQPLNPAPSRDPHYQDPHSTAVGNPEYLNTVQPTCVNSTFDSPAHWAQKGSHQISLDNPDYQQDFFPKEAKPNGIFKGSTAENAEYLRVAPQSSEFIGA

Row | SMILES | IC50 [1] [nM] | IC50 [2] [nM] | IC50 [3] [nM]
1 | Cc1cc2cc(n1)-c1cnn(C)c1OCCC[C@@H](C1CC1)CN1/C(=N/C2=O)Nc2cc(NC3CNC3)ccc21 [US20250034165, Example 32] | 0.029 | 0.018 | 0.34
2 | Cc1cc2cc(n1)-c1cnn(C)c1OCCC[C@@H](C1CC1)CN1/C(=N/C2=O)Nc2cc(NCC3CCOCC3)ccc21 [US20250034165, Example 22] | 0.052 | 0.04 | 2
3 | Cc1cc2cc(n1)-c1cnn(C)c1OCCC[C@@H](C1CC1)CN1/C(=N/C2=O)Nc2cc(NCCN3CCCC3)ccc21 [US20250034165, Example 72] | 0.021 | 0.038 | 0.93
4 | Cc1cc2cc(n1)-c1cnn(C)c1OCCC[C@@H](C1CC1)CN1/C(=N/C2=O)Nc2ccc(NC(C)CN(C)C)cc21 (stereo not given in full) [US20250034165, Example 63] | – | 0.009 | 0.33
5 | Cc1cc2cc(n1)-c1cnn(C)c1OCCC[C@@H](C1CC1)CN1/C(=N/C2=O)Nc2cc(NC3(C)COC3)ccc21 [US20250034165, Example 29] | 0.021 | 0.019 | 1.4
6 | Cc1cc2cc(n1)-c1cnn(C)c1OCCC[C@@H](C1CC1)CN1/C(=N/C2=O)Nc2cc(NCCCN3CCCC3)ccc21 [US20250034165, Example 70] | 0.029 | 0.015 | 0.99
7 | Cc1cc2cc(n1)-c1cnn(C)c1OCCC[C@@H](C1CC1)CN1/C(=N/C2=O)Nc2cc(NC3(C)CNC3)ccc21 [US20250034165, Example 34] | 0.028 | – | 0.4
8 | Cc1cc2cc(n1)-c1cnn(C)c1OCCC[C@@H](C1CC1)CN1/C(=N/C2=O)Nc2ccc(N3CC[C@H](O)C3)cc21 [US20250034165, Example 21] | 0.075 | – | 2.4
9 | Cc1cc2cc(n1)-c1cnn(C)c1OCCC[C@@H](C1CC1)CN1/C(=N/C2=O)Nc2cc(NCC3COC3)ccc21 [US20250034165, Example 36] | 0.035 | 0.033 | 1.5
10 | Cc1cc2cc(n1)-c1cnn(C)c1OCCC[C@@H](C1CC1)CN1/C(=N/C2=O)Nc2ccc(NC3CCCC3)cc21 [US20250034165, Example 87] | 0.226 | 0.042 | 13
11 | Cc1cc2cc(n1)-c1cnn(C)c1OCCC[C@@H](C1CC1)CN1/C(=N/C2=O)Nc2cc(NC3CCN(C(C)C)CC3)ccc21 [US20250034165, Example 47] | – | 0.023 | 0.55
12 | Cc1cc2cc(n1)-c1cnn(C)c1OCCC[C@@H](C1CC1)CN1/C(=N/C2=O)Nc2cc(NCCN3CCOCC3)ccc21 [US20250034165, Example 3] | 0.022 | – | 0.864
13 | Cc1cc2cc(n1)-c1cnn(C)c1OCCC[C@@H](C1CC1)CN1/C(=N/C2=O)Nc2ccc(OCCN(C)C)cc21 [US20250034165, Example 11] | 0.055 | 0.044 | 1.9
14 | Cc1cc2cc(n1)-c1cnn(C)c1OCCC[C@@H](C1CC1)CN1/C(=N/C2=O)Nc2ccc(NCCCN(C)C)cc21 [US20250034165, Example 27] | 0.033 | 0.03 | 0.78
15 | Cc1cc2cc(n1)-c1cnn(C)c1OCCC[C@@H](C1CC1)CN1/C(=N/C2=O)Nc2ccc(N(C)CCN(C)C)cc21 [US20250034165, Example 45] | 0.024 | 0.02 | 0.95
16 | Cc1cc2cc(n1)-c1cnn(C)c1OCCC[C@@H](C1CC1)CN1/C(=N/C2=O)Nc2cc(NC3C(C)(C)OC3(C)C)ccc21 [US20250034165, Example 31] | 0.042 | 0.038 | 2.2

Row | SMILES | IC50 [1] [nM] | IC50 [2] [nM] | IC50 [3] [nM]
17 | Cc1cc2cc(n1)-c1cnn(C)c1OCCC[C@@H](C1CC1)CN1/C(=N/C2=O)Nc2ccc(NCCCN3CCOCC3)cc21 [US20250034165, Example 81] | 0.027 | 0.044 | 0.68
18 | Cc1cc2cc(n1)-c1cnn(C)c1OCCC[C@@H](C1CC1)CN1/C(=N/C2=O)Nc2cc(NCC3(C)COC3)ccc21 [US20250034165, Example 40] | 0.03 | 0.027 | 1.6
19 | Cc1cc2cc(n1)-c1cnn(C)c1OCCC[C@@H](C1CC1)CN1/C(=N/C2=O)Nc2cc(NC3CN(C)C3)ccc21 [US20250034165, Example 33] | 0.012 | – | 0.47
20 | Cc1cc2cc(n1)-c1cnn(C3CC3)c1OCCC[C@@H](C)CN1/C(=N/C2=O)Nc2cc(NCCN3CCOCC3)ccc21 [US20250034165, Example 5] | – | 0.091 | 3.1
21 | Cc1cc2cc(n1)-c1cnn(C)c1OCCC[C@@H](C1CC1)CN1/C(=N/C2=O)Nc2ccc(NC3CCN(C)CC3)cc21 [US20250034165, Example 20] | – | 0.016 | 0.2
22 | Cc1cc2cc(n1)-c1cnn(C)c1OCCC[C@@H](C1CC1)CN1/C(=N/C2=O)Nc2cc(NC[C@H]3COCCO3)ccc21 [US20250034165, Example 19] | 0.035 | – | 1.8
23 | Cc1cc2cc(n1)-c1cnn(C)c1OCCC[C@@H](C1CC1)CN1/C(=N/C2=O)Nc2cc(NCCCN)ccc21 [US20250034165, Example 50] | 0.066 | – | 1.3
24 | Cc1cc2cc(n1)-c1cnn(C)c1OCCC[C@@H](C1CC1)CN1/C(=N/C2=O)Nc2ccc(NCCN3CCCC3)cc21 [US20250034165, Example 82] | 0.014 | – | 0.58
25 | Cc1cc2cc(n1)-c1cnn(C)c1OCCC[C@@H](C1CC1)CN1/C(=N/C2=O)Nc2cc(N[C@@H]3CCOC3)ccc21 [US20250034165, Example 43] | 0.039 | – | 1.2
26 | Cc1cc2cc(n1)-c1cnn(C3CC3)c1OCCC[C@@H](C)CN1/C(=N/C2=O)Nc2cc(NC[C@H]3COCCO3)ccc21 [US20250034165, Example 14] | – | 0.11 | 4
27 | Cc1cc2cc(n1)-c1cnn(C)c1OCCC[C@@H](C1CC1)CN1/C(=N/C2=O)Nc2ccc(NCCCN3CCCC3)cc21 [US20250034165, Example 84] | – | 0.1 | 1.2
28 | Cc1cc2cc(n1)-c1cnn(C)c1OCCC[C@@H](C1CC1)CN1/C(=N/C2=O)Nc2ccc(NCCN)cc21 [US20250034165, Example 58] | – | 0.012 | 0.51
29 | Cc1cc2cc(n1)-c1cnn(C)c1OCCC[C@@H](C1CC1)CN1/C(=N/C2=O)Nc2cc(NCCCCN(C)C)ccc21 [US20250034165, Example 51] | – | 0.017 | 1.8
30 | Cc1cc2cc(n1)-c1cnn(C3CC3)c1OCCC[C@@H](C)CN1/C(=N/C2=O)Nc2ccc(N3CC[C@H](O)C3)cc21 [US20250034165, Example 16] | 0.12 | – | 3.4
31 | Cc1cc2cc(n1)-c1cnn(C)c1OCCC[C@@H](C1CC1)CN1/C(=N/C2=O)Nc2cc(N[C@@H]3CCCOC3)ccc21 [US20250034165, Example 18] | 0.051 | – | 1.7

— BindingDB's records for patent US20250034165 (Chia Tai Tianqing Pharmaceutical Group, 2025)
